According to ChEMBL document CHEMBL3875185, “Structure-anticonvulsant activity studies in the group of (E)-N-cinnamoyl aminoalkanols derivatives monosubstituted in phenyl ring with 4-Cl, 4-CH3 or 2-CH3” (Bioorg Med Chem, 2017):

Legend:
Rattus norvegicus [1] = experiment: Anticonvulsant activity in ip dosed maximal electroshock induced seizure Sprague-Dawley rat model assessed as suppression in hindlimb tonic extension by measuring time to peak effect; format: functional
[2] = Protection index, ratio of TD50 for neurotoxicity in ip dosed mouse to ED50 for ip dosed pentylenetetrazole induced seizure mouse model; format: toxicity, organism-based; conditions: in vivo, read-out: Ratio TD50/ED50
[3] = target: Adenosine receptor A2a (Homo sapiens) (UniProt P29274); experiment: Displacement of [3H]CGS 21680 from human recombinant adenosine receptor A2A expressed in HEK293 cells at 100 uM measured after 120 mins by scintillation counting method relative to control; format: cell-based
Rattus norvegicus [4] = experiment: Neurotoxicity in ip dosed Sprague-Dawley rat assessed as behavioral change by measuring time to peak effect; format: toxicity, organism-based; conditions: in vivo
Rattus norvegicus [5] = experiment: Neurotoxicity in Sprague-Dawley rat assessed as behavioral change at 30 mg/kg, po measured at 4 hrs post dose; format: toxicity, organism-based; conditions: in vivo
Mus musculus [6] = experiment: Anticonvulsant activity in ip dosed 6-Hz induced seizure mouse model assessed as restoration of normal activity within 10 secs from stimulation at 44 mA; format: functional
Mus musculus [7] = experiment: Anticonvulsant activity in ip dosed maximal electroshock induced seizure mouse model assessed as suppression in hindlimb tonic extension by measuring time to peak effect; format: functional
CHO = experiment: Displacement of [3H]methyl-spiperone from human recombinant dopamine D4.4 receptor expressed in CHO cells at 100 uM measured after 60 mins by scintillation counting method relative to control; format: cell-based
[8] = Protection index, ratio of TD50 for neurotoxicity in ip dosed Sprague-Dawley rat model to ED50 for ip dosed maximal electroshock induced seizure Sprague-Dawley rat model; format: toxicity, organism-based; conditions: in vivo, read-out: Ratio TD50/ED50
Rattus norvegicus [9] = experiment: Neurotoxicity in Sprague-Dawley rat assessed as behavioral change at 30 mg/kg, po measured at 1 hr post dose; format: toxicity, organism-based; conditions: in vivo
[10] = target: Melatonin receptor type 1A (Homo sapiens) (UniProt P48039); experiment: Displacement of [125I]2-iodomelatonin from human recombinant MT1 receptor expressed in CHO cells at 100 uM measured after 60 mins by scintillation counting method relative to control; format: cell-based
Rattus norvegicus [11] = species: Rattus norvegicus; experiment: Displacement of [3H]TCP from rat cerebral cortex phencyclidine receptor at 100 uM measured after 120 mins by scintillation counting method relative to control
[12] = target: Sodium-dependent noradrenaline transporter (Homo sapiens) (UniProt P23975); experiment: Displacement of [3H]nisoxetine from human recombinant norepinephrine transporter expressed in CHO cells at 100 uM measured after 120 mins by scintillation counting method relative to control; format: cell-based
[13] = target: T1, Vasoactive intestinal polypeptide receptor 1 (Homo sapiens) (UniProt P32241); experiment: Displacement of [125I]VIP from human recombinant VPAC1 receptor expressed in CHO cells at 100 uM measured after 60 mins by scintillation counting method relative to control; format: cell-based
T1 sequence (whole entry): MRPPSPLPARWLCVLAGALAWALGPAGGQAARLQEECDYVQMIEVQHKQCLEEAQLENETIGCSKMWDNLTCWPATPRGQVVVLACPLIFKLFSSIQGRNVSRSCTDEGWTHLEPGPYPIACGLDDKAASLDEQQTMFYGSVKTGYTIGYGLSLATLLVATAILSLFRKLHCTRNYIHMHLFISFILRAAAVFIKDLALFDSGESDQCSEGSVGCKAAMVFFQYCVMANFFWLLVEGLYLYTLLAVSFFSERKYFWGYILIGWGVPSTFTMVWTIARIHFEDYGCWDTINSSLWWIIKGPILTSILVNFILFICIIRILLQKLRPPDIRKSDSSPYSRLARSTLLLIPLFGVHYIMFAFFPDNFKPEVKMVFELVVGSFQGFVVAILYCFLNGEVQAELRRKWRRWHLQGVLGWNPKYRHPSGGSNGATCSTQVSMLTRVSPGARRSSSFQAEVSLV

[14] = Protection index, ratio of TD50 for neurotoxicity in ip dosed mouse to ED50 for ip dosed 6-Hz induced seizure mouse model at 32 mA; format: toxicity, organism-based; conditions: in vivo, read-out: Ratio TD50/ED50
[15] = target: T2, C-C chemokine receptor type 1 (Homo sapiens) (UniProt P32246); experiment: Displacement of [125I]MIP-1a from human recombinant CCR1 receptor expressed in HEK293 cells at 100 uM measured after 120 mins by scintillation counting method relative to control; format: cell-based
T2 sequence (whole entry): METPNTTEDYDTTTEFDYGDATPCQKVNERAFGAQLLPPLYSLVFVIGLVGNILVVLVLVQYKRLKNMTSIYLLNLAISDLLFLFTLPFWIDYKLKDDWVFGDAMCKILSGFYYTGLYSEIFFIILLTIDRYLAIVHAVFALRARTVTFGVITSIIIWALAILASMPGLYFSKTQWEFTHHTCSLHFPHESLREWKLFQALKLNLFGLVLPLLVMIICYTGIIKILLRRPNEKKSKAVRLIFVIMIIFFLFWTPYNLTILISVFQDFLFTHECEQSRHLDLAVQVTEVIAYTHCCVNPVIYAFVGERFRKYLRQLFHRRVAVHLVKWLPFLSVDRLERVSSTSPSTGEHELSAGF

[16] = target: T3, C-X-C chemokine receptor type 2 (Homo sapiens) (UniProt P25025); experiment: Displacement of [125I]IL-8 from human recombinant CXCR2 expressed in HEK293 cells at 100 uM measured after 60 mins by scintillation counting method relative to control; format: cell-based
T3 sequence (whole entry): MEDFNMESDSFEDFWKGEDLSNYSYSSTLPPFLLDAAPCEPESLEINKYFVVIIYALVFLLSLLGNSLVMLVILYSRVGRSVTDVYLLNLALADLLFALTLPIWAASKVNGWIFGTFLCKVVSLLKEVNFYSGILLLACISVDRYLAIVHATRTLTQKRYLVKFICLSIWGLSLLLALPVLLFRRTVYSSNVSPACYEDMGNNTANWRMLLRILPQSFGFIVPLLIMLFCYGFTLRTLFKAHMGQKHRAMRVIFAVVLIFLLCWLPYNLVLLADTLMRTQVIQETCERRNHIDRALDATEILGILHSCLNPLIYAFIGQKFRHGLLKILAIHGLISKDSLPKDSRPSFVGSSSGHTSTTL

[17] = target: T4, Endothelin-1 receptor (Homo sapiens) (UniProt P25101); experiment: Displacement of [125I]endothelin-1 from human recombinant ETA receptor expressed in CHO cells at 100 uM measured after 120 mins by scintillation counting method relative to control; format: cell-based
T4 sequence (whole entry): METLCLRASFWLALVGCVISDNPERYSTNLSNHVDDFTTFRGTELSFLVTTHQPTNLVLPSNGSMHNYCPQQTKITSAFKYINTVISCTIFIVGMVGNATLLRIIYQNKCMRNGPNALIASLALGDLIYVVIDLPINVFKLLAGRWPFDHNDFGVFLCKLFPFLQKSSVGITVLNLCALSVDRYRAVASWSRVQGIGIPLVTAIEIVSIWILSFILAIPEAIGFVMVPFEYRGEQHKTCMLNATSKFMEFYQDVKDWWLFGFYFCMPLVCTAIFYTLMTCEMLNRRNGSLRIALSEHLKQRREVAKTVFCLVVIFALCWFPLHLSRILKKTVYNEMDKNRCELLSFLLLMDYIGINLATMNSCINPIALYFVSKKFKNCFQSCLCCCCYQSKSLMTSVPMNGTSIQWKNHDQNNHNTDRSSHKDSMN

Chain of Sodium-dependent noradrenaline transporter (Homo sapiens) (P23975 whole entry): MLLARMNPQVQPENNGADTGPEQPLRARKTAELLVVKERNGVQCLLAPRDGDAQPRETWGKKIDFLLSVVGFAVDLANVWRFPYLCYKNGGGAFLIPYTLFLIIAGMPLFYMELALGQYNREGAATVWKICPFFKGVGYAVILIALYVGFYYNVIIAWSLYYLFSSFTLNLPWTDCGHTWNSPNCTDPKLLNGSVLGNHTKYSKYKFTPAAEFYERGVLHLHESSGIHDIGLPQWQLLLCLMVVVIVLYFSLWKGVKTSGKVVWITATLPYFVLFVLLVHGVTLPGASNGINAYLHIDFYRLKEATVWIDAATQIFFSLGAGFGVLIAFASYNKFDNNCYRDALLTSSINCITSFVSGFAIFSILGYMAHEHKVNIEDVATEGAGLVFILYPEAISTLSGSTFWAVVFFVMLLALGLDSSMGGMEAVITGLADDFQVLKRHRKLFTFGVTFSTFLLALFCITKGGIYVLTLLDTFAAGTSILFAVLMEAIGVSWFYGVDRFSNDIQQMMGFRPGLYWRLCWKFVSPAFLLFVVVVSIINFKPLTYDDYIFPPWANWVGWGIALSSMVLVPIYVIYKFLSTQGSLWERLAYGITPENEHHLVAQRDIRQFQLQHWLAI
Chain of Adenosine receptor A2a (Homo sapiens) (P29274 whole entry): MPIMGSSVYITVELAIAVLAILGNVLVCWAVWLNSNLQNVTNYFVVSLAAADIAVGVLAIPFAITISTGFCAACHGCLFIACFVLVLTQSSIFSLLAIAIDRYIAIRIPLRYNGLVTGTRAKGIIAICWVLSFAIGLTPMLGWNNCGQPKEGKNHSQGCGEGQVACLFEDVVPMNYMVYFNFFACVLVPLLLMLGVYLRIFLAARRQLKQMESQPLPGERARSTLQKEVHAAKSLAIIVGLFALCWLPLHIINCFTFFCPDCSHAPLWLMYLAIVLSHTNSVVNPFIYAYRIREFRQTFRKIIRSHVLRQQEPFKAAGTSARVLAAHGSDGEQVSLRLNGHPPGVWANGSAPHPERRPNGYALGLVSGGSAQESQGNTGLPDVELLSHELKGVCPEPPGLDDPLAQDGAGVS
Chain of Melatonin receptor type 1A (Homo sapiens) (P48039 whole entry): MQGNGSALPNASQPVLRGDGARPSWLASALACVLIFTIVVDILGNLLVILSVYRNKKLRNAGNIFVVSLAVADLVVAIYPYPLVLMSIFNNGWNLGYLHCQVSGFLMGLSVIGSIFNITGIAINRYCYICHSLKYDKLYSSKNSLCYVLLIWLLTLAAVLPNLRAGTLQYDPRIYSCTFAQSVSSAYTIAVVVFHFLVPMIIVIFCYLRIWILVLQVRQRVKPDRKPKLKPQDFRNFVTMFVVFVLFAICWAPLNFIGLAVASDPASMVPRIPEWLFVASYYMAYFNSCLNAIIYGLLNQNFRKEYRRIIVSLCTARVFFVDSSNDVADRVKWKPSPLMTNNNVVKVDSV

SMILES	Time (Rattus norvegicus [1]) [h]	selectivity ratio [2]	inhibition [3] [%]	Time (Rattus norvegicus [4]) [h]	Activity (Rattus norvegicus [5])	ED50 (Mus musculus [6]) [mg/kg]	Time (Mus musculus [7]) [h]	inhibition (CHO) [%]	selectivity ratio [8]	Activity (Rattus norvegicus [9])	inhibition [10] [%]	inhibition (Rattus norvegicus [11]) [%]	inhibition [12] [%]	inhibition [13] [%]	selectivity ratio [14]	inhibition [15] [%]	inhibition [16] [%]	inhibition [17] [%]
Cc1ccccc1/C=C/C(=O)N[C@@H](C)CO	0.25	2.57	3.8	0.5	Non-Toxic	42.3	0.25	23.2	6.3	Non-Toxic	14.5	7.8	30.4	2	2.86	-3.7	21.9	-1
CC(O)CNC(=O)/C=C/c1ccc(Cl)cc1 (centres undefined)	0.5	1.76	25.2	0.5	Non-Toxic	51.3	0.5	28.2	1.66	Non-Toxic	10.6	-5.5	48.1	-0.4	4.26	-2	27	9.3
CCC(CO)NC(=O)/C=C/c1ccc(Cl)cc1 (centres undefined)	0.5	2.18	27.3	1	Non-Toxic	92.9	0.25	30.6	3.74	Non-Toxic	4.3	-2.2	61.7	4.8	3.41	-2.2	27.1	0.3
